From PubChem BioAssay (NCI) come the findings set out here.

SMILES strings stand for the structures.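 Five compound concentrations were applied to cells in 96-well plates for 48 hours; endpoints were derived by simple linear interpolation of the resulting dose-response curve. TGI is the concentration that stops growth completely.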

Some test systems named below: 786-0 renal; HS 578T breast; M14 melanoma; MCF7 breast; MDA-MB-231 breast; MDA-MB-435; NCI-H522 lung; OVCAR-3 ovarian; OVCAR-4 ovarian; OVCAR-8 ovarian; SF-268 CNS; SF-295 CNS; SK-MEL-2 melanoma; SW-620 colon; TK-10 renal; U251 CNS; NCI-H460 lung; T-47D breast.
What all share (test): DTP human tumour cell line panel, 48 h

A word on the TGI: it is the concentration giving total growth inhibition. `O=C1C=C2CC[C@H]3[C@@H]4CC[C@H](OC(=O)c5cccc6cc7ccccc7nc56)[C@H]4CC[C@@H]3[C@H]2CC1`: the total growth inhibition concentration (TGI) in the test on 786-0 renal, in the test with HS 578T breast, in the test with M14 melanoma, with MCF7 breast, in the test on MDA-MB-231 breast and in the test with MDA-MB-435 was greater than 100 µM throughout. Besides, the TGI in the test on NCI-H522 lung is 69.2 µM; in the test with OVCAR-3 ovarian, greater than 100 µM; in the test on OVCAR-4 ovarian, greater than 100 µM; with OVCAR-8 ovarian, greater than 100 µM; in the test with SF-268 CNS it was greater than 100 µM; in the test on SF-295 CNS it was greater than 100 µM. The total growth inhibition concentration (TGI) in the test with SK-MEL-2 melanoma, with SW-620 colon, with TK-10 renal and in the test on U251 CNS was greater than 100 µM each time.

As for `CC(C)N1[C@@H]2CCCC[C@H]2N(C(C)C)P1(=O)C(=O)/C=C/c1ccccc1`, the TGI in the test with 786-0 renal was 3.36 µM; in the test on HS 578T breast, 4.94 µM; in the test on M14 melanoma, 5.49 µM; in the test with MCF7 breast, 59.9 µM; in the test on MDA-MB-231 breast it was 8.74 µM; with MDA-MB-435, 3.74 µM. For the same molecule, the TGI in the test with NCI-H460 lung worked out at 10.3 µM; in the test on NCI-H522 lung, 3.26 µM; in the test with OVCAR-3 ovarian, 5.74 µM; with OVCAR-4 ovarian, 3.39 µM; with OVCAR-8 ovarian it was 3.46 µM; in the test on SF-268 CNS it was 7.33 µM. The TGI is 23.4 µM in the test on SF-295 CNS, 8.17 µM in the test with SK-MEL-2 melanoma, 12.9 µM with TK-10 renal and 16.5 µM with U251 CNS.

On to `O=[N+]([O-])c1ccc(C(=Nc2ccccc2)SSC(=Nc2ccccc2)c2ccc([N+](=O)[O-])o2)o1`, for which the concentration for total growth inhibition (TGI) in the test on 786-0 renal is 4.08 µM; in the test on HS 578T breast, 5.34 µM; with M14 melanoma, 4.85 µM; in the test on MDA-MB-231 breast, 7.92 µM; in the test with MDA-MB-435, 6.17 µM; with NCI-H460 lung, greater than 25.5 µM. Besides, the TGI in the test on NCI-H522 lung was 0.755 µM; in the test with OVCAR-3 ovarian, 3.38 µM; with OVCAR-4 ovarian, 3 µM; with OVCAR-8 ovarian, 3.75 µM; in the test with SF-268 CNS, 4.4 µM; in the test on SF-295 CNS it was 8.31 µM. In addition, the TGI with SK-MEL-2 melanoma is 6.15 µM; with T-47D breast, 5.79 µM; with TK-10 renal, 13.9 µM; in the test with U251 CNS, 2.24 µM.

For `CCOC(=O)c1cc(C#N)[nH]c1-c1ccsc1`, the TGI with 786-0 renal was greater than 100 µM; in the test on HS 578T breast, 55.8 µM; with M14 melanoma, greater than 100 µM; in the test with MCF7 breast, greater than 100 µM; in the test with MDA-MB-231 breast it was greater than 100 µM; with MDA-MB-435, 51.9 µM. The total growth inhibition concentration (TGI) was greater than 100 µM in the test on NCI-H460 lung; 90.2 µM in the test with NCI-H522 lung; 96 µM in the test on OVCAR-3 ovarian; greater than 100 µM with OVCAR-4 ovarian; greater than 100 µM in the test with OVCAR-8 ovarian; 57.1 µM in the test with SF-268 CNS. The TGI with SF-295 CNS is greater than 100 µM; in the test on SK-MEL-2 melanoma it was greater than 100 µM; in the test with SW-620 colon it was greater than 100 µM; with TK-10 renal it was greater than 100 µM; with U251 CNS, 87.8 µM.

On to `CCOP(=O)(OCC)C(Nc1ccc(C(=O)O)cc1)c1ccc(C(Nc2ccc(C(=O)O)cc2)P(=O)(OCC)OCC)cc1` (stereo not drawn), for which the TGI with 786-0 renal, with HS 578T breast, with M14 melanoma, with MDA-MB-231 breast, in the test with MDA-MB-435 and in the test on NCI-H460 lung was greater than 100 µM each time. Also, the total growth inhibition concentration (TGI) in the test on NCI-H522 lung, with OVCAR-3 ovarian, in the test on OVCAR-4 ovarian, with OVCAR-8 ovarian, in the test on SF-268 CNS and with SF-295 CNS was greater than 100 µM each time. In addition, the TGI with SK-MEL-2 melanoma, with SW-620 colon, in the test with T-47D breast, in the test with TK-10 renal and with U251 CNS was greater than 100 µM throughout.

Consider `O=C(OCc1ccccc1)N1CCCc2c(n(S(=O)(=O)c3ccccc3)c3ccccc23)C1`, for which the TGI with 786-0 renal, in the test on HS 578T breast, in the test on M14 melanoma, in the test with MCF7 breast, in the test with MDA-MB-231 breast and with NCI-H460 lung was greater than 100 µM throughout. For the same molecule, the total growth inhibition concentration (TGI) in the test with NCI-H522 lung, in the test with OVCAR-3 ovarian, with OVCAR-4 ovarian, in the test on OVCAR-8 ovarian, in the test on SF-268 CNS and in the test with SF-295 CNS was greater than 100 µM throughout. Also, the TGI with SK-MEL-2 melanoma, in the test on SW-620 colon, with T-47D breast, in the test on TK-10 renal and with U251 CNS was greater than 100 µM each time.

As for `COc1ccc(C)cc1Nc1nnc(-c2ccc(N)cc2)s1`, the concentration for total growth inhibition (TGI) in the test on 786-0 renal, in the test with HS 578T breast, in the test on M14 melanoma, with MCF7 breast, in the test with MDA-MB-435 and in the test on NCI-H460 lung was greater than 100 µM in each case. Moreover, the TGI in the test with NCI-H522 lung, in the test on OVCAR-3 ovarian, with OVCAR-4 ovarian, in the test on OVCAR-8 ovarian, in the test on SF-268 CNS and with SF-295 CNS was greater than 100 µM throughout. The concentration for total growth inhibition (TGI) with SK-MEL-2 melanoma, in the test with SW-620 colon and in the test with T-47D breast was greater than 100 µM in each case.

`O=C(Nc1ccc(Cl)cc1)NS(=O)(=O)c1c(-c2ccccc2)oc2ccccc2c1=O`: the TGI in the test on 786-0 renal was greater than 100 µM; with HS 578T breast it was greater than 100 µM; in the test with MDA-MB-435 it was greater than 100 µM; in the test on NCI-H460 lung, greater than 100 µM; in the test on NCI-H522 lung, 31.2 µM; in the test on OVCAR-4 ovarian, greater than 100 µM. Also, the total growth inhibition concentration (TGI) with OVCAR-8 ovarian, in the test on SF-268 CNS, in the test with SF-295 CNS, with SK-MEL-2 melanoma, with SW-620 colon and in the test with T-47D breast was greater than 100 µM throughout. Moreover, the TGI in the test on TK-10 renal is 86.9 µM; with U251 CNS, greater than 100 µM.
